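In this assay, cells in 96-well plates receive the compound at five concentrations for 48 hours. Endpoints are linearly interpolated between the surrounding concentrations. TGI denotes the concentration required for complete inhibition of growth.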
System: P388 leukemia
Assay: NCI tumour cell line growth inhibition, 48 h

Q: Which TGI does the source give for `CCCCS(=N)(=O)CC[C@H](N)C(=O)O` (stereo partly specified) here?
A: The TGI was 5 mM.

Source: PubChem BioAssay (NCI)
